Values of other authors in US20200197494A1, “PEPTIDE COMPOSITIONS AND METHODS OF USE” (Dauntless Pharmaceuticals, priority 2017, published 2020).

Details: subcutaneous administration; background statement

**Q.** For `C[C@@H](O)[C@@H]1NC(=O)[C@H](CCCCN)NC(=O)[C@@H](Cc2c[nH]c3ccccc23)NC(=O)[C@H](Cc2ccccc2)NC(=O)[C@@H](NC(=O)[C@H](N)Cc2ccccc2)CSSC[C@@H](C(=O)N[C@H](CO)[C@@H](C)O)NC1=O` [octreotide, D-phenylalanyl-L-cysteinyl-L-phenylalanyl-D-tryptophyl-L-lysyl-L-threonyl-N-[2-hydroxy-1-(hydroxymethyl)propyl]-L-Cysteinamide, cyclic (2→7)-disulfide], which “peptide present in the blood stream (bioavailability)” value is on record?
**A.** Its value is about 100%.
